Experimental data: the supplement of paper PMC10307832

Tests used:
Assay in all cases: relative viability (nuclei count vs DMSO), 5 days (fraction); higher = more cells survive
Axitinib + Vorinostat = compound: CNC(=O)c1ccccc1Sc1ccc2c(/C=C/c3ccccn3)n[nH]c2c1 [Axitinib] + O=C(CCCCCCC(=O)Nc1ccccc1)NO [Vorinostat] (partner 1 µM)
Procedure, shortened: (§1)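 Lung cancer cell lines were pin-tool dosed in 1536-well plates on the day after seeding, with either a lone drug or a fixed anchor-drug dose plus five library-drug doses (not always all listed) in √10 steps. Nuclei were counted on 4× images after 5 days. Relative viability is the ratio of treated-well to vehicle-well nuclei counts, with each value a median of duplicate plates.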

[1] = compound: CC1=CC=C(C=C1)C(=O)CN2C3=C(CCCC3)SC2=N [Pifithrin_alpha] + O=C(c1cc(Cc2n[nH]c(=O)c3ccccc23)ccc1F)N1CCN(C(=O)C2CC2)CC1 [Olaparib] (partner 8 µM)
Procedure, shortened: as §1

[2] = compound: CC1=CC=C(C=C1)C(=O)CN2C3=C(CCCC3)SC2=N [Pifithrin_alpha] + O=C(CCCCCCC(=O)Nc1ccccc1)NO [Vorinostat] (partner 1 µM)
Procedure, shortened: as §1

[3] = compound: CC1=CC=C(C=C1)C(=O)CN2C3=C(CCCC3)SC2=N [Pifithrin_alpha] + NC(=O)Nc1cc(-c2cccc(F)c2)sc1C(=O)N[C@H]1CCCNC1 [AZD7762] (partner 0.2 µM)
Procedure, shortened: as §1

Cell Line	relative viability (Axitinib + Vorinostat; first compound 0.005 µM)	relative viability (Axitinib + Vorinostat; first compound 0.01581 µM)	relative viability (Axitinib + Vorinostat; first compound 0.05 µM)	relative viability (Axitinib + Vorinostat; first compound 0.1581 µM)	relative viability (Axitinib + Vorinostat; first compound 0.5 µM)	relative viability ([1]; first compound 1 µM)	relative viability ([1]; first compound 3.162 µM)	relative viability ([1]; first compound 10 µM)	relative viability ([1]; first compound 100 µM)	relative viability ([2]; first compound 3.162 µM)	relative viability ([2]; first compound 10 µM)	relative viability ([2]; first compound 31.62 µM)	relative viability ([2]; first compound 100 µM)	relative viability ([3]; first compound 1 µM)	relative viability ([3]; first compound 3.162 µM)	relative viability ([3]; first compound 10 µM)	relative viability ([3]; first compound 31.62 µM)	relative viability ([3]; first compound 100 µM)	relative viability ([1]; first compound 31.62 µM)	relative viability ([2]; first compound 1 µM)
SW 1573	0.735	0.789	0.985	0.741	0.783	0.493	0.466	0.413	0.342	0.787	0.719	0.498	0.82	–	–	–	–	–	–	–
NCI-H1975	0.704	0.729	0.715	0.644	0.733	0.676	0.437	0.374	0.354	0.708	0.579	0.54	0.529	0.508	0.485	0.501	0.512	0.38	0.467	0.626
NCI-H661	0.79	0.861	0.776	0.779	0.873	0.777	0.882	0.656	0.669	0.805	0.788	0.662	0.771	–	–	–	–	–	0.601	0.8
UMC-11	0.323	0.339	0.401	0.408	0.36	0.367	0.365	1.09	0.249	0.382	0.343	0.245	0.256	–	–	–	–	–	0.402	0.342
NCI-H520	0.797	0.678	0.686	0.691	0.801	0.319	0.286	0.317	0.292	0.954	0.716	0.678	0.772	–	–	–	–	–	0.301	0.641
COR-L23	0.516	0.478	0.502	0.452	0.586	0.262	0.306	0.267	0.269	0.349	0.361	–	0.344	–	–	–	–	–	–	0.42
NCI-H2023	0.545	0.604	0.607	0.557	0.796	0.514	0.455	0.318	0.244	0.577	0.545	0.334	0.464	–	–	–	–	–	0.301	0.726
NCI-H1650	0.699	0.616	0.694	0.5	0.754	0.596	1.09	0.373	0.408	0.596	0.332	0.382	0.373	–	–	–	–	–	0.298	0.527
RERF-LC-KJ	0.703	0.648	0.725	0.705	0.803	0.779	0.4	0.215	0.175	0.627	0.547	0.448	0.488	0.628	0.882	0.941	0.981	0.854	0.178	0.329
NCI-H1734	0.787	0.891	0.865	0.903	0.964	0.588	0.502	0.529	0.575	0.776	0.773	0.537	0.75	0.486	0.526	0.517	0.429	0.524	0.328	0.715
NCI-H1648	0.37	0.514	0.316	0.34	0.363	1.1	0.741	0.963	0.682	0.473	0.378	0.347	0.421	0.607	0.959	0.836	0.582	0.504	0.619	0.523
NCI-H2087	0.618	0.626	0.741	0.699	0.936	0.617	0.614	0.524	0.469	0.877	0.968	0.672	0.618	1.4	1.32	1.28	1.03	1.26	0.236	0.777
EKVX	0.804	0.687	0.797	0.686	0.805	0.825	0.685	0.531	0.336	0.597	0.549	0.636	0.572	0.685	0.562	0.592	0.463	0.424	0.266	–
NCI-H1915	0.552	0.516	0.508	0.536	0.517	0.245	0.267	0.249	0.276	0.527	0.418	–	0.543	0.682	0.694	0.647	–	0.656	–	0.456
NCI-H3122	0.914	1.06	1.05	0.888	1.02	0.635	0.48	0.511	0.389	0.978	1.03	0.828	0.898	1.07	1.1	0.962	0.739	1.08	0.291	0.878
NCI-H1792	–	–	–	–	–	0.469	0.348	0.272	0.255	–	–	–	–	0.656	0.508	0.453	–	0.494	–	–
A549	–	–	–	–	–	–	0.473	0.338	0.276	–	–	–	–	–	–	–	–	–	0.175	–
NCI-H1299	–	–	–	–	–	0.964	1	0.985	0.794	–	–	–	–	–	–	–	–	–	0.514	–
SK-LU-1	0.805	0.835	0.808	0.817	0.959	0.418	0.486	0.453	0.457	0.862	0.774	0.676	0.75	–	–	–	–	–	0.354	0.94
EBC-1	–	–	–	–	–	0.621	0.552	0.348	0.363	–	–	–	–	–	–	–	–	–	0.298	–
Calu-6	–	–	–	–	–	0.534	0.536	0.46	0.427	–	–	–	–	–	–	–	–	–	–	–
NCI-H1703	–	–	–	–	–	0.418	0.328	0.382	0.326	–	–	–	–	–	0.139	0.101	0.182	0.109	0.313	–
